Source: patent US11141413B2, “Method of treating renal cell carcinoma using N-(4-(6,7-dimethoxyquinolin-4-yloxy)phenyl)-N′-(4-fluorophenyl)cyclopropane-1,1-dicarboxamide, (2S)-hydroxybutanedioate” (Exelixis, Inc., priority 2016, dated 2021)

System: patients with advanced renal cell carcinoma
Conditions: in vivo
Protocol: Treatment modifications, including interruptions and dose reductions, were allowed to manage adverse events. […] Patients were allowed to continue study treatment beyond radiographic progression at the discretion of the investigator. On-study crossover between treatment groups was not permitted. Safety evaluations, including physical examination, vital signs, and laboratory assessments, were conducted every 2 weeks for the first 8 weeks and then every 4 weeks thereafter. ECG assessments were performed every 4 weeks for the first 8 weeks and then every 12 weeks. A safety follow-up visit was scheduled 30 days after treatment discontinuation. Adverse events were assessed by investigators and graded according to CTCAE version 4.0.
Safety analyses were limited to patients who received any amount of study treatment.

SMILES: COc1cc2nccc(Oc3ccc(NC(=O)C4(C(=O)Nc5ccc(F)cc5)CC4)cc3)c2cc1OC [cabozantinib]
- Abdominal pain, Grade 1-2 (human): 48 (15) n (%)
- Abdominal pain, Grade 3 (human): 12 (4) n (%)
- Abdominal pain, Grade 4 (human): 0 n (%)
- Alanine aminotransferase increased, Grade 1-2 (human): 47 (14) n (%)
- Alanine aminotransferase increased, Grade 3 (human): 7 (2) n (%)
- Alanine aminotransferase increased, Grade 4 (human): 1 (<1) n (%)
- Anemia, Grade 1-2 (human): 42 (13) n (%)
- Anemia, Grade 3 (human): 19 (6) n (%)
- Anemia, Grade 4 (human): 0 n (%)
- Any AE, Grade 1-2 (human): 70 (21) n (%)
- Any AE, Grade 3 (human): 210 (63) n (%)
- Any AE, Grade 4 (human): 25 (8) n (%)
- Arthralgia, Grade 1-2 (human): 43 (13) n (%)
- Arthralgia, Grade 3 (human): 1 (<1) n (%)
- Arthralgia, Grade 4 (human): 0 n (%)
- Aspartate aminotransferase increased, Grade 1-2 (human): 55 (17) n (%)
- Aspartate aminotransferase increased, Grade 3 (human): 5 (2) n (%)
- Aspartate aminotransferase increased, Grade 4 (human): 0 n (%)
- Asthenia, Grade 1-2 (human): 49 (15) n (%)
- Asthenia, Grade 3 (human): 15 (5) n (%)
- Asthenia, Grade 4 (human): 0 n (%)
- Back pain, Grade 1-2 (human): 54 (16) n (%)
- Back pain, Grade 3 (human): 8 (2) n (%)
- Back pain, Grade 4 (human): 0 n (%)
- Blood creatinine increased, Grade 1-2 (human): 17 (5) n (%)
- Blood creatinine increased, Grade 3 (human): 1 (<1) n (%)
- Blood creatinine increased, Grade 4 (human): 0 n (%)
- Constipation, Grade 1-2 (human): 89 (27) n (%)
- Constipation, Grade 3 (human): 1 (<1) n (%)
- Constipation, Grade 4 (human): 0 n (%)
- Cough, Grade 1-2 (human): 67 (20) n (%)
- Cough, Grade 3 (human): 1 (<1) n (%)
- Cough, Grade 4 (human): 0 n (%)
- Decreased appetite, Grade 1-2 (human): 146 (44) n (%)
- Decreased appetite, Grade 3 (human): 10 (3) n (%)
- Decreased appetite, Grade 4 (human): 0 n (%)
- Diarrhea, Grade 1-2 (human): 206 (62) n (%)
- Diarrhea, Grade 3 (human): 43 (13) n (%)
- Diarrhea, Grade 4 (human): 0 n (%)
- Diarrhea, all grades (human): 249 (75%) n (%)
- Diarrhea, grade 3 or 4 (human): 43 [13%] n [%]
- Discontinuation due to a primary reason of AE (excluding disease progression) (human): 10%
- Dizziness, Grade 1-2 (human): 41 (12) n (%)
- Dizziness, Grade 3 (human): 1 (<1) n (%)
- Dizziness, Grade 4 (human): 0 n (%)
- Dry skin, Grade 1-2 (human): 37 (11) n (%)
- Dry skin, Grade 3 (human): 0 n (%)
- Dry skin, Grade 4 (human): 0 n (%)
- Dysgeusia, Grade 1-2 (human): 80 (24) n (%)
- Dysgeusia, Grade 3 (human): 0 n (%)
- Dysgeusia, Grade 4 (human): 0 n (%)
- Dyspepsia, Grade 1-2 (human): 40 (12) n (%)
- Dyspepsia, Grade 3 (human): 1 (<1) n (%)
- Dyspepsia, Grade 4 (human): 0 n (%)
- Dysphonia, Grade 1-2 (human): 68 (21) n (%)
- Dysphonia, Grade 3 (human): 2 (<1) n (%)
- Dysphonia, Grade 4 (human): 0 n (%)
- Dyspnoea, Grade 1-2 (human): 56 (17) n (%)
- Dyspnoea, Grade 3 (human): 10 (3) n (%)
- Dyspnoea, Grade 4 (human): 0 n (%)
- Edema peripheral, Grade 1-2 (human): 39 (12) n (%)
- Edema peripheral, Grade 3 (human): 0 n (%)
- Edema peripheral, Grade 4 (human): 0 n (%)
- Epistaxis, Grade 1-2 (human): 14 (4) n (%)
- Epistaxis, Grade 3 (human): 0 n (%)
- Epistaxis, Grade 4 (human): 0 n (%)
- Fatigue, Grade 1-2 (human): 159 (48) n (%)
- Fatigue, Grade 3 (human): 36 (11) n (%)
- Fatigue, Grade 4 (human): 0 n (%)
- Fatigue, all grades (human): 195 (59%) n (%)
- Fatigue, grade 3 or 4 (human): 36 [11%] n [%]
- Flatulence, Grade 1-2 (human): 33 (10) n (%)
- Flatulence, Grade 3 (human): 0 n (%)
- Flatulence, Grade 4 (human): 0 n (%)
- Grade 3 and 4 adverse events: Hyperglycemia, % (human): 1 (1) %
- Grade 3 or 4 Adverse Events: Hypercalcemia (event of interest), % (human): (1) %
- Grade 3 or 4 Adverse Events: Hyperglycemia, % (human): (1) %
- Grade 3 or 4 Adverse Events: PPES, % (human): (8) %
- Grade 3 or 4 adverse events (human): 235 (71%) n (%)
- Grade 5 adverse events regardless of causality (human): 7.9%
- Headache, Grade 1-2 (human): 43 (13) n (%)
- Headache, Grade 3 (human): 1 (<1) n (%)
- Headache, Grade 4 (human): 0 n (%)
- Hyperglycemia, Grade 1-2 (human): 15 (5) n (%)
- Hyperglycemia, Grade 3 (human): 2 (<1) n (%)
- Hyperglycemia, Grade 4 (human): 1 (<1) n (%)
- Hypertension, Grade 1-2 (human): 73 (22) n (%)
- Hypertension, Grade 3 (human): 49 (15) n (%)
- Hypertension, Grade 4 (human): 0 n (%)
- Hypertension, grade 3 or 4 (human): 49 [15%] n [%]
- Hypertriglyceridemia, Grade 1-2 (human): 17 (5) n (%)
- Hypertriglyceridemia, Grade 3 (human): 4 (1) n (%)
- Hypertriglyceridemia, Grade 4 (human): 0 n (%)
- Hypomagnesaemia, Grade 1-2 (human): 38 (12) n (%)
- Hypomagnesaemia, Grade 3 (human): 6 (2) n (%)
- Hypomagnesaemia, Grade 4 (human): 10 (3) n (%)
- Hypothyroidism, Grade 1-2 (human): 76 (23) n (%)
- Hypothyroidism, Grade 3 (human): 0 n (%)
- Hypothyroidism, Grade 4 (human): 0 n (%)
- Insomnia, Grade 1-2 (human): 32 (10) n (%)
- Insomnia, Grade 3 (human): 0 n (%)
- Insomnia, Grade 4 (human): 0 n (%)
- Mucosal inflammation, Grade 1-2 (human): 60 (18) n (%)
- Mucosal inflammation, Grade 3 (human): 5 (2) n (%)
- Mucosal inflammation, Grade 4 (human): 0 n (%)
- Muscle spasms, Grade 1-2 (human): 45 (14) n (%)
- Muscle spasms, Grade 3 (human): 0 n (%)
- Muscle spasms, Grade 4 (human): 0 n (%)
- Nausea, Grade 1-2 (human): 158 (48) n (%)
- Nausea, Grade 3 (human): 15 (5) n (%)
- Nausea, Grade 4 (human): 0 n (%)
- Nausea, all grades (human): 173 (52%) n (%)
- Overall incidence of adverse events regardless of causality (human): 100%
- Pain in extremity, Grade 1-2 (human): 46 (14) n (%)
- Pain in extremity, Grade 3 (human): 5 (2) n (%)
- Pain in extremity, Grade 4 (human): 0 n (%)
- Palmar-plantar erythrodysaesthesia syndrome, Grade 1-2 (human): 115 (35) n (%)
- Palmar-plantar erythrodysaesthesia syndrome, Grade 3 (human): 27 (8) n (%)
- Palmar-plantar erythrodysaesthesia syndrome, Grade 4 (human): 0 n (%)
- Patients with dose reductions (human): 62%
- Proteinuria, Grade 1-2 (human): 37 (11) n (%)
- Proteinuria, Grade 3 (human): 8 (2) n (%)
- Proteinuria, Grade 4 (human): 0 n (%)
- Pruritus, Grade 1-2 (human): 27 (8) n (%)
- Pruritus, Grade 3 (human): 0 n (%)
- Pruritus, Grade 4 (human): 0 n (%)
- Pyrexia, Grade 1-2 (human): 31 (9) n (%)
- Pyrexia, Grade 3 (human): 3 (<1) n (%)
- Pyrexia, Grade 4 (human): 0 n (%)
- Rash, Grade 1-2 (human): 52 (16) n (%)
- Rash, Grade 3 (human): 2 (<1) n (%)
- Rash, Grade 4 (human): 0 n (%)
- Serious adverse events ≥grade 3 (human): 130 (40%) n (%)
- Stomatitis, Grade 1-2 (human): 65 (20) n (%)
- Stomatitis, Grade 3 (human): 8 (2) n (%)
- Stomatitis, Grade 4 (human): 0 n (%)
- Study treatment discontinuation due to diarrhea (human): 0.9%
- Treatment discontinuation due to an adverse event not related to disease progression (human): 12%
- Vomiting, Grade 1-2 (human): 106 (32) n (%)
- Vomiting, Grade 3 (human): 7 (2) n (%)
- Vomiting, Grade 4 (human): 0 n (%)
- Weight decreased, Grade 1-2 (human): 105 (32) n (%)
- Weight decreased, Grade 3 (human): 9 (3) n (%)
- Weight decreased, Grade 4 (human): 0 n (%)
- Grade 5 adverse events assessed as treatment-related: One
